Laboratory results from patent US11884708B2, “Stapled peptide inhibitors of nemo as potential anti-inflammatory and anti-cancer drugs” (INSTITUT PASTEUR, priority 2015, dated 2024).
Where a SMILES comes first, the peptide text is derived from it. Bridges are numbered along the chain shown (N, C = ends). [ ]: non-standard residue; d: D form. The star is where a group is joined. BODIPYFLEthylmaleimide = Cc1cc(C)n2c1C=C1C=CC(CCC(=O)NCCN3C(=O)CC(*)C3=O)=[N+]1[B-]2(F)F; R8 = C=CCCCCCC[C@@](C)(N)C(=O)O; S5 = C=CCCC[C@](C)(N)C(=O)O

Tests used:
70Z3-C3 cells = test: Cellular uptake of BODIPY-labeled peptides by FACS; assay type: cell-based
Procedure: 2.2×10^5 cells in 100 μl of 70Z3-C3 were incubated with either 10 μM or with various doses of 10 μM, 5 μM and 1 μM of labeled-peptides at 37° C., 5% CO2. Similarly to fluorescence microscopy experiments, cells alone or incubated with BODIPY®-labeled BSA (ref) or BODIPY®-UBI devoid of the antennapedia cell penetrating sequence were used as negative control, whereas cells with BA-UBI [1] at 10 μM were used as positive control. After 2 h incubation, cells were washed 4 times with PBS at room temperature, and finally diluted 1:3 in PBS before subjected to FACS analysis. Along with the BODIPY® fluorophore the fluorescence intensity was recorded at 525±25 nm using the Gallios Flow cytometer (Beckman Coulter) to analyse each cells sample. Each internalization peptide was assessed by gating a population of 15,000 events and the data were analysed using Kaluza software version 1.2.
For determination of cellular uptake by flow cytometry, the BA-UBI-SAHND306-Q313 stapled peptide was first incubated with 2.2×10^5 70Z3-C3 cells in […] either at 4° C. or 37° C. for 2 h. Bodipy-labeled BSA, bodipy alone and bodipy-UBI were used as negative controls to verify the washing quality and efficient removal of any non-specific binding at the cell surface before FACS analysis. […] After 2 h of incubation, cells were washed four times with PBS at room temperature and diluted at 1:3 in PBS for FACS analysis. Samples were analyzed as previously described in the European patent (No: 15307137.8).

[1] = Temperature-induced denaturation followed by CD; assay type: physicochemical; conditions: 30 μM or 300 μM, ΔCp ≈ 0; for Tm: thermal denaturation by CD; for ΔH: van't Hoff enthalpy change at Tm
Procedure: Temperature-induced denaturation experiments were performed by measuring the ellipticity at 222 nm from 1° C. to 95° C. in 1° C. steps, at a rate of 1° C./min, with a 2 nm bandwidth. Thermodynamic parameters including the melting temperature (Tm) and the van't Hoff enthalpy change at the melting temperature (ΔHm) were determined by fitting the denaturation curves with the Gibbs-Helmholtz equation as described elsewhere, [10]. The heat capacity change (ΔCp) was assumed to be 0 as judged by ΔHm which yielded similar values within 10% at two independent peptide concentrations (30 and 300 μM). The ellipticity was converted to differential extinction coefficient Δε (M^−1·cm^−1) per residue taking into account the peptide concentration determined by amino acid analysis.
Thermal stability of the peptides was also investigated by performing thermal denaturation profiles followed by CD (FIGS. 1 C and D and Table III). […] Indeed, the helicity of UBI-Aib (49%) is only 1.16-fold increased at 1° C. compared to UBI (42%), while its melting temperature (Tm=−8° C.) is 2.25 times higher than that of UBI (Tm=−18° C.).

CC2-LZ domain of NEMO = CC2-LZ domain of NEMO (Mus musculus, UniProt O88522); test: Fluorescence anisotropy/polarization binding assay
Procedure: Measurements were performed on a Tecan infinite F500 equipped with polarizing filters and using excitation and emission wavelengths at 485 nm and 535 nm, respectively. Anisotropy data were calculated using the Magellan software version 6.5. Prior experiments, the mouse CC2-LZ was extensively dialyzed in binding buffer containing 20 mM HEPES pH 7.4, 100 mM NaCl, and 0.05% P20 detergent (v/v). All experiments were performed in a 384 well plate (vol 25 μl) at room temperature. The BODIPY®-labeled peptide concentrations were fixed at 0.1 or 10 μM whereas the CC2-LZ concentration varied from 0 to 100 μM. Reference calibrated at 22 mP, was based on the fluorescence of the peptide alone. Each experimental binding curve was determined from at least 10 independent concentration points. The G-factor was calculated as previously described in Agou et al. [7], with a value of 0.75, which was observed constant within 5% upon all titrations. For analysis, the blank value corresponding to the value of buffer alone, was subtracted from all titration data.
All NEMO peptides were conjugated to an extra N-terminal cysteine with the fluorophore BODIPY® or FITC to determine their binding affinity for the CC2-LZ domain of NEMO (also called NOA or UBAN) by fluorescence polarization. For each peptide titration, various concentration of the target ranging from 0 to 100 μM and a fixed concentration of peptide at 0.1 or 10 μM were used at 25° C. […] For these reasons, all further titration experiments were performed with a fixed peptide concentration of 0.1 μM unless otherwise indicated.

[2] = CD spectroscopy, α-helical content; assay type: physicochemical; conditions: 50 μM peptide, phosphate buffer pH 7.0, UBI in TFE taken as 100%

Chain of CC2-LZ domain of NEMO (O88522 242-343 limits assumed): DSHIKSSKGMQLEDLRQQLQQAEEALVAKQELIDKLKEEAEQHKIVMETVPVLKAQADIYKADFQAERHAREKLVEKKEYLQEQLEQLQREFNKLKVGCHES

SMILES	ΔS [1]	Tm [1]	ΔH [1]	α-helical content at 1° C. [2]	also measured
CN(C)CCCN1c2ccccc2Sc2ccc(Cl)cc21 [chlorpromazine, reference compound]	–	–	–	–	inhibition at 10 µg/mL (70Z3-C3 cells; read-out: reduction of the uptake of A-UBI-SAHND306-Q313 by endocytosis inhibitor): 59%
CCN(c1nc(N)c(C(=O)N=C(N)N)nc1Cl)C(C)C [ethylisopropylamiloride, 5-(N-ethyl-N-isopropyl) amiloride, reference compound]	–	–	–	–	reduction of the uptake of A-UBI-SAHND306-Q313 by endocytosis inhibitor (70Z3-C3 cells; 30 min pre-incubation, nystatin 50 μg/ml, chlorpromazine 10 μg/ml, ethylisopropylamiloride 100 μM): 26%
CC[C@H](C)[C@@H]1NC(=O)[C@](C)(NC(=O)[C@H](C)NC(=O)[C@H](CCC(N)=O)NC(=O)[C@H](C)NC(=O)[C@H](CCCCN)NC(=O)[C@H](CC(C)C)NC(=O)[C@H](CSC2CC(=O)N(CCNC(=O)CCC3=[N+]4C(=Cc5c(C)cc(C)n5[B-]4(F)F)C=C3)C2=O)NC(C)=O)CCCCCCC=CCCC[C@@](C)(C(=O)N[C@@H](C)C(=O)N[C@@H](CCC(N)=O)C(=O)N[C@@H](CCCNC(=N)N)C(=O)N[C@@H](Cc2c[nH]cn2)C(=O)N[C@@H](C)C(=O)N[C@@H](CCCNC(=N)N)C(=O)N[C@@H](CCC(N)=O)C(=O)N[C@@H](CCCCN)C(N)=O)NC(=O)[C@H](Cc2ccccc2)NC(=O)[C@H](CCCNC(=N)N)NC(=O)[C@H](C)NC(=O)[C@H](CCCCN)NC(=O)[C@H](Cc2ccc(O)cc2)NC1=O (stereo partly drawn) [UBI-SAHN D306-Q313 Q/Q] (Ac-C(BODIPYFLEthylmaleimide)LKAQA[R8]IYKARF[S5]AQRHARQK-NH2; staple 7-14)	–	–	–	–	cell internalization by FACS, in words (70Z3-C3 cells): became cell permeable
CC[C@H](C)[C@@H]1NC(=O)[C@H](CC(=O)O)NC(=O)[C@H](C)NC(=O)[C@H](CCC(N)=O)NC(=O)[C@](C)(NC(=O)[C@H](CCCCN)NC(=O)[C@H](CC(C)C)NC(=O)[C@H](CSC2CC(=O)N(CCNC(=O)CCC3=[N+]4C(=Cc5c(C)cc(C)n5[B-]4(F)F)C=C3)C2=O)NC(C)=O)CCCCCC/C=C\CCC[C@@](C)(C(=O)N[C@@H](CCCNC(=N)N)C(=O)N[C@@H](Cc2ccccc2)C(=O)N[C@@H](CCC(N)=O)C(=O)N[C@@H](C)C(=O)N[C@@H](CCC(=O)O)C(=O)N[C@@H](CCCNC(=N)N)C(=O)N[C@@H](Cc2c[nH]cn2)C(=O)N[C@@H](C)C(=O)N[C@@H](CCCNC(=N)N)C(=O)N[C@@H](CCC(=O)O)C(=O)N[C@@H](CCCCN)C(N)=O)NC(=O)[C@H](CCCCN)NC(=O)[C@H](Cc2ccc(O)cc2)NC1=O (stereo partly drawn) [UBI-SAHN A303-A310 (A)] (Ac-C(BODIPYFLEthylmaleimide)LK[R8]QADIYK[S5]RFQAERHAREK-NH2; staple (Z) 4-11; N-terminus and C-terminus assumed)	A: −21 - cal. mol^−1.K^−1	A: 5 - B: C°	A: −5950 - (cal. mol)^−1	A: 63% -	Binding affinity (FP) at 10 μM (CC2-LZ domain of NEMO; fixed peptide concentration 10 μM): weak binding; α-helical content at 1° C. ([2]; listed as UBI-SAHNA303-A310 (A)): 63%; α-helical content at 1° C. ([2]; listed as UBI-SAHNA310-A310 (A)): 63%
CC(=O)N[C@@H](CSC1CC(=O)N(CCNC(=O)CCC2=[N+]3C(=Cc4c(C)cc(C)n4[B-]3(F)F)C=C2)C1=O)C(=O)N[C@@H](CCC(=O)O)C(=O)N[C@@H](CC(C)C)C(=O)N[C@@H](C)C(=O)N[C@@H](CCC(N)=O)C(=O)N[C@@H](CC(C)C)C(=O)N[C@@H](CCC(N)=O)C(=O)N[C@@H](C)C(=O)N[C@@H](CCC(=O)O)C(=O)N[C@@H](CC(C)C)C(=O)N[C@@H](CC(=O)O)C(=O)N[C@]1(C)CCCCCCC=CCCC[C@@](C)(C(=O)N[C@@H](CC(=O)O)C(=O)N[C@@H](CCCCN)C(=O)N[C@@H](CCC(N)=O)C(=O)N[C@@H](CCC(=O)O)C(=O)N[C@@H](CC(C)C)C(=O)N[C@@H](CCCNC(=N)N)C(=O)N[C@@H](CCCCN)C(=O)N[C@@H](CC(C)C)C(N)=O)NC(=O)[C@H](CCC(N)=O)NC(=O)[C@H](C(C)C)NC(=O)[C@H](C(C)C)NC(=O)[C@H](C)NC(=O)[C@H](CCC(N)=O)NC(=O)[C@H](C(C)C)NC1=O (single isomer, unassigned) [Co-SAHN I307-A314 (B), ELAQLQAELDXVQAVVQXDKQELRKL, reference compound]	B: −24 cal. mol^−1.K^−1	32 ± 0.3 C°	B: −7200 (cal. mol)^−1	B: 58%	Kd (CC2-LZ domain of NEMO; fixed peptide concentration 0.1 μM, read-out: Binding affinity (FP) at 0.1 μM): > 800 µM
